From PMC3427421 (2012)

Molecular target: NR2A-containing NMDA receptor (NR2A subunit) (Rattus norvegicus, UniProt Q00959)
Assay type: cell-based

Sequence of NR2A-containing NMDA receptor (NR2A subunit) (Q00959 23-1464, other chains not shown): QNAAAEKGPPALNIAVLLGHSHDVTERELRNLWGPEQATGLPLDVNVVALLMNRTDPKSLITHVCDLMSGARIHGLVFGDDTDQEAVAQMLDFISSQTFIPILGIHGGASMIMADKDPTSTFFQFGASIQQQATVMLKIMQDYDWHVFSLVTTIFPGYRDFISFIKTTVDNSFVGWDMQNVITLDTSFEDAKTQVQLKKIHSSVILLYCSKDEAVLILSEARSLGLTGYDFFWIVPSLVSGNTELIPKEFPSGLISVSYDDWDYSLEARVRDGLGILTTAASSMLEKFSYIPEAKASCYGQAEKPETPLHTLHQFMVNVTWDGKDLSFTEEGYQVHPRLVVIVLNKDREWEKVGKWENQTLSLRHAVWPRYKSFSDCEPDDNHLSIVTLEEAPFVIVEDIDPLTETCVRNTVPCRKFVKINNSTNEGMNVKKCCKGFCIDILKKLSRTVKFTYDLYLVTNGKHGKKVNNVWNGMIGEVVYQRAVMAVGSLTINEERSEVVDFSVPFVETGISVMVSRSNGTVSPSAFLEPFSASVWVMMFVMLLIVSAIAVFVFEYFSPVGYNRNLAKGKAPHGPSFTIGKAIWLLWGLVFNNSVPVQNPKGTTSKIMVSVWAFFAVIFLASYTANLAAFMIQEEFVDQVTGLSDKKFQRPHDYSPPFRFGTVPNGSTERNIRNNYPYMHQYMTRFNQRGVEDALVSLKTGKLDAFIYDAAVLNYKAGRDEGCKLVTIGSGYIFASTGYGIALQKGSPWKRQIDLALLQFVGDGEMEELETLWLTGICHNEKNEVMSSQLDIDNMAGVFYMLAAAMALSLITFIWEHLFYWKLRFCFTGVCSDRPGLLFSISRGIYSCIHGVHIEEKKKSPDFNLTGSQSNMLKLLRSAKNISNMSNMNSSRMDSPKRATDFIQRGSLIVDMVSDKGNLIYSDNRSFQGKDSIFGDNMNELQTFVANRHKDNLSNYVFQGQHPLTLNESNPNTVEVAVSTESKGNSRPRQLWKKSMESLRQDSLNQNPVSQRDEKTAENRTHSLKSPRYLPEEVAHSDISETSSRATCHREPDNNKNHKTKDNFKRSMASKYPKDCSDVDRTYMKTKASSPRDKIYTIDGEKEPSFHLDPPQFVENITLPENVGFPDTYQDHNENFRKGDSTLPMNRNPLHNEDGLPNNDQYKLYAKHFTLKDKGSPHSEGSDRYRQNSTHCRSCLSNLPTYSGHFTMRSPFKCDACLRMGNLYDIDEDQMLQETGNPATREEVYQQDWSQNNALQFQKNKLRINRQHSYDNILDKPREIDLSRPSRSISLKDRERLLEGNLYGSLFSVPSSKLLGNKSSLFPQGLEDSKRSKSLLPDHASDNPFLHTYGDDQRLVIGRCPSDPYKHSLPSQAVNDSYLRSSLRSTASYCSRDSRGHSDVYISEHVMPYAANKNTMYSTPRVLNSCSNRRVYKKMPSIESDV

Q: With `C[C@H](NC(c1cccc2[nH]c(=O)c(=O)[nH]c12)P(=O)(O)O)c1ccc(Br)cc1` (stereo partly drawn) [PEAQX, ({[(1S)-1-(4-bromophenyl)ethyl]amino}-(2,3-dioxo-1,4-dihydroquinoxalin-5-yl)methyl)phosphonic acid] as the compound, how does the IC50 read?
A: 130 ± 40 nM
